Test results reported in the supplement of paper PMC11208160.

Experiment: recombinant barcode read abundance after kanamycin selection (control-corrected) (log10(CPM+1)); higher = more efficient recombination; sequences stand for … in AGTGCAGAGAAAATCGGCCAGTTTTCTCTGCCTGCAGTCCGCATGCCGT…AGATTTATGCAGCGGACTGCCTTTCTCCCAAAGTGATAAACCGGACAGTATCATGGACCGGTTTTCCCGGTAATCCGTATTTGCAAGGTTGGTTTCACT; site = the 11-nt target
Summary of the method: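 Duplicate cultures were plated either on chloramphenicol/ampicillin LB agar, serving as control, or on chloramphenicol/ampicillin/kanamycin with 0.1 mM IPTG. These came from a pooled E. coli library co-electroporated with a donor plasmid, each member pairing a target with an IS621 bridge RNA target-binding loop. Recombination efficiency equals averaged, control-corrected counts per million of recombinant-junction barcodes. It is listed as log10(CPM+1).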
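Also: IS621 recombinase and bridge RNA in Escherichia coli cells.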

| Sequence | recombinant barcode read abundance (log10) |
| --- | --- |
| ACTCGTCCTTGGGTTCTAACCTGTTGCTA (site GAGAAGACTAC) | 0.0362 |
| GGACTCACTTGGGTTCTAACCTGTTGCCT (site GGATTCTCTAG) | 0.15 |
| TAGCCATCTTGGGTTCTAACCTGTTGCCT (site TACCCATCTAG) | 0.166 |
| CTTTGTACTTGGGTTCTAACCTGTTGCCT (site CTTTGTACTAG) | 0.419 |
| TAGGCGCCTTGGGTTCTAACCTGTTGCGT (site TAGGCGCCTAT) | 0.249 |
| TCGGCGACTTGGGTTCTAACCTGTTGCCT (site TCAGCGACTAG) | 0.11 |
| AAGCGTACTTGGGTTCTAACCTGTTGCCT (site AAGCGTCCTAG) | 0.141 |
| TATGTAGCTTGGGTTCTAACCTGTTGCCC (site TATGTAGCTAG) | 0.226 |
| GCTTGAGCTTGGGTTCTAACCTGTTGCCT (site GCGTGAGCTAG) | 0.139 |
| ATCGCTTCTTGGGTTCTAACCTGTTGCCT (site AGCGCTTCTAG) | 0.432 |
| CGATTAACTTGGGTTCTAACCTGTTGCCT (site CGATTACCTAG) | 0.361 |
| TGGGGCCCTTGGGTTCTAACCTGTTGCCT (site TGGTGCCCTAC) | 0.156 |
| GGGGCTACTTGGGTTCTAACCTGTTGCCT (site GGGGCTACTAG) | 0.396 |
| GCCTATTCTTGGGTTCTAACCTGTTGCGT (site TCCGATTCTAC) | 0.0523 |
| GCTTGAGCTTGGGTTCTAACCTGTTGCCG (site GCTTGAGCTCG) | 0.344 |
| GGCTCCTCTTGGGTTCTAACCTGTTGCCA (site GGTTCATCTTG) | 0.013 |
| CTACAGGCTTGGGTTCTAACCTGTTGCAC (site CTACAGGCTGT) | 1 |
| CTCGACCCTTGGGTTCTAACCTGTTGCCT (site CTCGACCCTAG) | 1.7 |
| GGCCTGCCTTGGGTTCTAACCTGTTGCCT (site GTCATGCCTAG) | 0.0864 |
| CGAGCAACTTGGGTTCTAACCTGTTGCTT (site CGTGTAACTAA) | 0.181 |
| GTATCACCTTGGGTTCTAACCTGTTGCCT (site GTATCAACTAG) | 0.19 |
| AGATATACTTGGGTTCTAACCTGTTGCTT (site AGATATACTAA) | 0.167 |

| Sequence | recombinant barcode read abundance (log10) |
| --- | --- |
| CTTACCGCTTGGGTTCTAACCTGTTGCCT (site CTTACGGCTAG) | 0.235 |
| GTAAGGACTTGGGTTCTAACCTGTTGCTT (site GTAAGTACTAA) | 0.0109 |
| TACCATTCTTGGGTTCTAACCTGTTGCTT (site TACCATTCTAA) | 0.239 |
| GACAGCCCTTGGGTTCTAACCTGTTGCTG (site GACAGCCCTCA) | 0.991 |
| TGTGAGTCTTGGGTTCTAACCTGTTGCAT (site TGTGAGTCTAG) | 0.149 |
| CTGAGCCCTTGGGTTCTAACCTGTTGCCT (site CTGAGCCCTAG) | 0.6 |
| AGCGGTCCTTGGGTTCTAACCTGTTGCCT (site AGCGGGCCTAG) | 0.409 |
| AGTCTACCTTGGGTTCTAACCTGTTGCTT (site AGTCTACCTAA) | 0.331 |
| CTAACTACTTGGGTTCTAACCTGTTGCGT (site CTAACTACTAC) | 0.181 |
| GATCGATCTTGGGTTCTAACCTGTTGCGT (site GATCGATCTAA) | 0.197 |
| TAGCATACTTGGGTTCTAACCTGTTGCCA (site TAGCATACTTG) | 0.529 |
| TAGGAACCTTGGGTTCTAACCTGTTGCGT (site GAGGAGCCTAC) | 0.022 |
| TTCCAATCTTGGGTTCTAACCTGTTGCCA (site TTCCAATCTTG) | 0.713 |
| ATCATAGCTTGGGTTCTAACCTGTTGCGC (site CCATACCCTTA) | 0.0517 |
| AGTCAAACTTGGGTTCTAACCTGTTGCCT (site AGTCAAACTAG) | 0.157 |
| GTCGCTACTTGGGTTCTAACCTGTTGCCG (site GTCGCTACTCG) | 0.95 |
| TTCCCGCCTTGGGTTCTAACCTGTTGCCT (site TTCACGCCTAG) | 0.0618 |
| TAGCCTTCTTGGGTTCTAACCTGTTGCCT (site TGGCCTTCTAG) | 0.0192 |
| GGACAATCTTGGGTTCTAACCTGTTGCCT (site GGACCATCTAG) | 0.174 |
| CAGACGACTTGGGTTCTAACCTGTTGCCA (site TGCTGTCCTAA) | 0.0664 |
| AGTAGGACTTGGGTTCTAACCTGTTGCCT (site TGTAGGACTAG) | 0.213 |
| CACAATCCTTGGGTTCTAACCTGTTGCGT (site CACAATCCTAC) | 1.76 |

| Sequence | recombinant barcode read abundance (log10) |
| --- | --- |
| CATAACTCTTGGGTTCTAACCTGTTGCCT (site TATAACTCTAG) | 0.0747 |
| TAGACTACTTGGGTTCTAACCTGTTGCTA (site TAGACTACTAA) | 0.198 |
| TTGTACTCTTGGGTTCTAACCTGTTGCTT (site TTGTGTTCTAA) | 0.0725 |
| TAGCCATCTTGGGTTCTAACCTGTTGCCT (site TATCCATCTAG) | 0.0171 |
| GAAGAGTCTTGGGTTCTAACCTGTTGCCT (site GTAGAGTCTAG) | 1.29 |
| TCGCGGCCTTGGGTTCTAACCTGTTGCCT (site ACGCGGCCTAG) | 0.153 |
| AGAACACCTTGGGTTCTAACCTGTTGCTT (site AGAACACCTAA) | 0.525 |
| TAGCGTACTTGGGTTCTAACCTGTTGCGG (site TAGCGTACTCC) | 1.79 |
| TAAAGGGCTTGGGTTCTAACCTGTTGCCT (site TAACGGGCTCG) | 0.0341 |
| TTGAGGACTTGGGTTCTAACCTGTTGCCA (site TTGAGGACTTG) | 0.943 |
| CGCCACCCTTGGGTTCTAACCTGTTGCCT (site CTGCACCCTAG) | 0.0944 |
| ATTAAGTCTTGGGTTCTAACCTGTTGCCT (site ATTAAGTCTAG) | 0.359 |
| GTAGACCCTTGGGTTCTAACCTGTTGCCT (site CTAGACCCTAG) | 1.16 |
| GGCGTCCCTTGGGTTCTAACCTGTTGCCT (site GGCGTCCCTAG) | 1.3 |
| ATTGCTACTTGGGTTCTAACCTGTTGCCA (site GAACAGCCTAC) | 0.143 |
| GCGCGTGCTTGGGTTCTAACCTGTTGCCT (site GCTCGTGCTAG) | 0.11 |
| GGTTGACCTTGGGTTCTAACCTGTTGCAT (site GGTTGACCTAT) | 0.913 |
| CTCCCAACTTGGGTTCTAACCTGTTGCCG (site CTCCCTACTCT) | 0.356 |
| GGAGGGTCTTGGGTTCTAACCTGTTGCTT (site AGAGGGTCTAA) | 0.693 |
| TTCTATCCTTGGGTTCTAACCTGTTGCCT (site TTCTTTCCTAG) | 0.094 |
| AGGTCCTCTTGGGTTCTAACCTGTTGCGT (site AGGTCCTCTAT) | 1.71 |
| GGATCCACTTGGGTTCTAACCTGTTGCCT (site AGATCCACTAG) | 0.306 |
